{"source": "paper PMC8568530", "about": "“Inhibition of Vascular Smooth Muscle and Cancer Cell Proliferation by New VEGFR Inhibitors and Their Immunomodulator Effect: Design, Synthesis, and Biological Evaluation” (Oxidative Medicine and Cellular Longevity, 2021)", "key": {"HCT-116": {"tested_on": "HCT-116", "assay": "MTT antiproliferative assay, HCT-116", "format": "cell-based", "conditions": "Homo sapiens, colorectal carcinoma HCT-116", "protocol": "(§1) The in vitro antiproliferative activities of the newly synthesized compounds were evaluated against a panel of three human tumor cell lines, namely, breast cancer (MCF-7), hepatocellular carcinoma (HepG-2), and colorectal carcinoma (HCT-116) using the standard MTT method. The tested cell lines were selected depending on their VEGF overexpression. Sorafenib, the lead drug, was coassayed as a positive control.\n(§2) The antiproliferative activity of the synthesized compounds was evaluated using MTT protocol as described (Supplementary data (available here))."}, "HepG-2": {"tested_on": "HepG-2", "assay": "MTT antiproliferative assay, HepG-2", "format": "cell-based", "conditions": "Homo sapiens, HepG2, hepatocellular carcinoma HepG-2", "protocol": "as §1, §2"}, "TNF-α": {"tested_on": "TNF-α", "assay": "TNF-α in HepG-2 supernatant (ELISA)", "format": "cell-based, human", "text": "(1) Estimation of Human Tumor Necrosis Factor Alpha (TNF-α) in HepG-2 Supernatant. […] Celecoxib, a potent inhibitor of TNF-α-induced cytokine expressions, was used as a positive control. […] Among the tested compounds, compound 7a caused a remarkably significant reduction in TNF-α levels (87%) in comparison to celecoxib (86%).\nThe levels of TNF-α in cell culture supernatants were estimated by the ELISA technique according to the reported procedure."}, "Bcl-2": {"tested_on": "Bcl-2", "assay": "Bcl-2 level in HepG-2 cells", "format": "cell-based, human", "text": "(§3) (2) Effects on Bcl-2 Family Proteins. The Bcl-2 family proteins are vital regulators of apoptosis cell death. Members of this family include the proapoptotic factor Bax which promotes cell death and the prosurvival (antiapoptotic) Bcl-2 which suppresses cell death. […] Results are expressed in Table 3.\n(§4) (2) Effects on Bcl-2 Family Proteins. […] (Supplementary data)."}, "BAX": {"tested_on": "BAX", "assay": "BAX level in HepG-2 cells", "format": "cell-based, human", "text": "as §3, §4"}, "HepG-2 cells [1]": {"tested_on": "HepG-2 cells", "assay": "Cell cycle analysis by flow cytometry", "format": "cell-based, human", "conditions": "HepG-2, compound at its IC50 concentration", "protocol": "(3) Cell Cycle Analysis. For further investigation of the apoptotic capacity of compound 7a, flow cytometric analysis was carried out on the HepG-2 cancer cell line treated with the tested compound at its IC50 concentrations using untreated HepG-2 cancer cells as a negative control. […] Accumulation of cells at the G2-M phase for 7a was estimated to be 46.74% versus 23.11% accumulation for control HepG-2 cells.\n(3) Cell Cycle Analysis. According to the method described by Léonce et al., the flow cytometric analysis for compound 7a was performed (Supplementary data)."}, "VEGFR-2": {"molecular_target": "VEGFR-2 (Homo sapiens, UniProt P35968)", "sequence (P35968 20-1356)": "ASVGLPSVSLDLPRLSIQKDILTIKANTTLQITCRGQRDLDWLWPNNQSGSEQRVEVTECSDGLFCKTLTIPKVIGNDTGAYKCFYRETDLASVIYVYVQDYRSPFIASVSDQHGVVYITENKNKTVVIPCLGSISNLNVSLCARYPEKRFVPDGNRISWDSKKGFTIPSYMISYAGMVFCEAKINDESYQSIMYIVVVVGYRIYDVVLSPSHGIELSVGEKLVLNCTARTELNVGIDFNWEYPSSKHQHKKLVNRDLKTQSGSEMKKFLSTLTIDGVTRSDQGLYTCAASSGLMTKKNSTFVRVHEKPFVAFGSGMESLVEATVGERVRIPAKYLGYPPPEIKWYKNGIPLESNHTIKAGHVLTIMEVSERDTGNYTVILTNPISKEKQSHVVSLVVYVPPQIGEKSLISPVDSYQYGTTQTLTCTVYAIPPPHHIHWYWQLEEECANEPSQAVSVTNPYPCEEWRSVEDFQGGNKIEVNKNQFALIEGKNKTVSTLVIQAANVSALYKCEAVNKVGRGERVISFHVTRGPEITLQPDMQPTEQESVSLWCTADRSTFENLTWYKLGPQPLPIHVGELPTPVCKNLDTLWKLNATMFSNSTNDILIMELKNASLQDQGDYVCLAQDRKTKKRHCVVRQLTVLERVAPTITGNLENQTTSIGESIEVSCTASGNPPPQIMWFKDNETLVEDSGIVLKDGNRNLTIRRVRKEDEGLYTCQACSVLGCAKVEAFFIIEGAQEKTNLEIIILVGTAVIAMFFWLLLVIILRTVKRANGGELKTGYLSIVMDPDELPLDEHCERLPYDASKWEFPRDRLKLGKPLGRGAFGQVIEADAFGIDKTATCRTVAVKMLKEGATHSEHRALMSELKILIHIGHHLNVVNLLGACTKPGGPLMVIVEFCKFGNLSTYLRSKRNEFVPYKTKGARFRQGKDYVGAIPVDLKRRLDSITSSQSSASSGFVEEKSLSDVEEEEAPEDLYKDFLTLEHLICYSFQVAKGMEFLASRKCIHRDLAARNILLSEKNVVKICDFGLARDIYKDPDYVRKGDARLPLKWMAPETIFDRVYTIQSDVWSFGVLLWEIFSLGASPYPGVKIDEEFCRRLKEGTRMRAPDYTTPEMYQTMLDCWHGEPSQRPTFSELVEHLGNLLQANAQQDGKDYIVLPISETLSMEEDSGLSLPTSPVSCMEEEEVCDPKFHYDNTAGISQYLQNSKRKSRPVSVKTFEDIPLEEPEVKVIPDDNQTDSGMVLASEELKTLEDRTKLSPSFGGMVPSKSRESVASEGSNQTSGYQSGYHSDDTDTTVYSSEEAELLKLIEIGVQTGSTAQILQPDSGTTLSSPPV", "assay": "In vitro VEGFR-2 enzyme inhibition assay", "format": "biochemical", "conditions": "read-out: IC50 against VEGFR-2"}, "[2]": {"tested_on": "VEGFR-2 protein expression", "assay": "Western blot of VEGFR-2 protein expression", "format": "cell-based, human", "conditions": "HepG-2 cells, 10 h exposure, versus blank", "text": "(4) Effect of Compound 7a on VEGFR-2 Protein Expression."}, "[3]": {"tested_on": "WI-38 cell line (normal human lung fibroblasts)", "assay": "MTT cytotoxicity against normal cells WI-38", "format": "cell-based", "conditions": "normal human lung fibroblasts WI-38", "protocol": "The cytotoxicity values of the synthesized compounds against the WI-38 cell line (normal human lung fibroblasts) were also evaluated in vitro.\nas §2"}, "HepG-2 cells [4]": {"tested_on": "HepG-2 cells", "assay": "Annexin V-FITC/PI apoptosis assay", "format": "cell-based, human", "conditions": "HepG-2, IC50 dose (2.17 μM), 24 h", "protocol": "(5) Apoptotic Cell Subpopulation Determination. To support the fact that derivative 7a induces apoptosis in the HepG-2 cancer cell line, annexin V-FITC and PI double-staining assay protocol was used. […] This is evidence that the antiproliferative activities are associated with a proapoptotic effect of the tested compound.\n(4) Apoptotic Cell Subpopulation Determination. The annexin-V-FITC assay for compound 7a on HepG-2 cells was performed according to the reported procedure (Supplementary data)."}, "MCF-7": {"tested_on": "MCF-7", "assay": "MTT antiproliferative assay, MCF-7", "format": "cell-based", "conditions": "Homo sapiens, MCF7, breast cancer MCF-7", "protocol": "as §1, §2"}, "caspase-3": {"tested_on": "caspase-3", "assay": "Active caspase-3 level in HepG-2 cells", "format": "cell-based, human", "conditions": "HepG-2 cells treated with compound", "text": "(1) Effects on the Levels of Active Caspase-3. A significant mechanism by which anticancer agents can affect cancer cells is apoptosis. Apoptosis is a process of automated cell death. The apoptosis mechanism is typically mediated by a group of proteases called caspases. Caspase-3 is activated in every mammalian cell type provoking the cell to die, considered one of the apoptosis marks.\n(1) Effects on the Levels of Active Caspase-3. […] (Supplementary data)."}, "[5]": {"tested_on": "vascular smooth muscle cells (VSMCs)", "assay": "Vascular smooth muscle cell proliferation", "format": "cell-based", "conditions": "2.5, 5, and 10 μM, 48 h", "protocol": "In order to examine its effect on the proliferation of vascular smooth muscle cells (VSMCs), VSMCs were treated with increasing concentrations of compound 7a (2.5, 5, and 10 μM) for 48 h. The cellular proliferation results are illustrated in Figure 9.\nVSMCs were isolated and cultured following the reported method (Supplementary data)."}, "[6]": {"conditions": "HepG-2 cells treated with compound"}}, "note": "“Also recorded” adds a separate entry of the source.", "data": [{"smiles": "COc1cccc(NC(=O)c2ccc(NC(=O)c3cccnc3)cc2)c1", "note": "[Compound 7a, N-(4-((3-Methoxyphenyl)carbamoyl)phenyl)nicotinamide]", "values": [{"measurement": "IC50", "setting": "HCT-116", "result": 1460, "unit": "nM"}, {"measurement": "IC50", "setting": "HepG-2", "result": 1050, "unit": "nM"}, {"measurement": "TNF-α % inhibition", "setting": "TNF-α", "result": 87, "unit": "%"}, {"measurement": "Bcl-2 Conc.", "setting": "Bcl-2; [6]", "result": 1.25, "unit": "pg/mL"}, {"measurement": "Bcl-2 Fold", "setting": "Bcl-2; HepG-2 cells, versus control", "result": 0.23, "unit": "fold"}, {"measurement": "BAX Conc.", "setting": "BAX; [6]", "result": 261.4, "unit": "pg/mL"}, {"measurement": "BAX Fold", "setting": "BAX; HepG-2 cells, versus control", "result": 12.11, "unit": "fold"}, {"measurement": "accumulation of cells at the G2-M phase", "setting": "HepG-2 cells [1]", "result": 46.74, "unit": "%"}, {"measurement": "apoptotic cells at the pre-G1 phase", "setting": "HepG-2 cells [1]", "result": 10.5, "unit": "%"}, {"measurement": "percentage of cells at G1", "setting": "HepG-2 cells [1]", "result": 30.15, "unit": "%"}, {"measurement": "percentage of cells at the S phase", "setting": "HepG-2 cells [1]", "result": 22.11, "unit": "%"}, {"measurement": "IC50", "setting": "VEGFR-2", "result": 2170, "unit": "nM"}, {"measurement": "effect on VEGFR-2 protein expression", "setting": "[2]", "result": "downregulated the expression of VEGFR-2 protein"}, {"measurement": "IC50", "setting": "[3]", "result": 60800, "unit": "nM"}, {"measurement": "early apoptotic population", "setting": "HepG-2 cells [4]", "result": 7.41, "unit": "%"}, {"measurement": "late apoptotic population", "setting": "HepG-2 cells [4]", "result": 6.80, "unit": "%"}, {"measurement": "IC50", "setting": "MCF-7", "result": 1370, "unit": "nM"}, {"measurement": "Caspase 3 Conc.", "setting": "caspase-3", "result": 401.15, "unit": "pg/mL"}, {"measurement": "effect on VSMC proliferation", "setting": "[5]", "result": "potent inhibitory effect; also recorded: significant antiproliferative effect at all concentrations tested"}]}]}
